Test results: US5548062A, “Tumor cell invasion-inhibiting peptides, peptide complexes and cancer metastasis inhibitors” (Asahi Glass Company Ltd., priority 1990, dated 1996)
Where a SMILES comes first, the peptide text is derived from it.

Experiment: Kinetics in blood after injection into the tail vein
Set-up: species or system C57BL/6j mouse
Settings: female, C57BL/6j, mouse, in vivo, iv
Procedure: The kinetics in blood of the peptide of the formula (14) prepared in the Reference Example and the [^14 C]-labeled complex prepared in Example D-2 were studied.
To the vein of the tail of a C57BL/6j mouse (8 weeks old, female), 1,000 μg/0.2 cm^3 of the peptide or 100 μg/0.2 cm^3 of the labeled complex was injected. Upon expiration of a predetermined period of time, the carotid artery was cut for blood sampling. To quantitatively analyze the amount of the peptide in blood, to 1 cm^3 of the sampled blood, the same amount of 10% trifluoroacetic acid was added, followed by centrifugal separation at a speed of 10,000 rpm to precipitate the denatured protein, and the supernatant was recovered. […] To the obtained freeze-dried product, 0.2 cm^3 of distilled water was added, and the quantitative analysis was conducted by reversed phase (C18) chromatography. The quantitative analysis was conducted based on the quantitative curve obtained with a standard product (the peptide prepared in the Reference Example and quantitatively analyzed by an amino acid analysis).
To quantitatively analyze the [^14 C]-labeled complex, 2.5 cm^3 of a tissue solubilizer (NCA, Amersham Company) was added to 0.2 cm^3 of the sampled blood, followed by heating at 50° C. for two hours to solubilize the blood. […]

## C[C@H](N)C(=O)N[C@@H](CCC(=O)O)C(=O)N[C@@H](CC(=O)O)C(=O)NCC(=O)N[C@@H](CC(=O)O)C(=O)N[C@@H](C)C(=O)N[C@@H](CCCCN)C(=O)N[C@H](C(=O)N[C@@H](CC(=O)O)C(=O)N[C@@H](CCC(N)=O)C(=O)N[C@@H](C)C(=O)N[C@@H](CCC(=O)O)C(=O)N[C@@H](CCCCN)C(=O)N[C@@H](C)C(=O)N[C@@H](CCC(=O)O)C(=O)NCC(=O)N[C@@H](C)C(=O)NCC(=O)N[C@@H](CC(=O)O)C(=O)N[C@@H](C)C(=O)N[C@@H](CCCCN)C(=O)O)[C@@H](C)O [peptide of the formula (14), Ala-Glu-Asp-Gly-Asp-Ala-Lys-Thr-Asp-Glx-Ala-Glx-Lys-Ala-Glu-Gly-Ala-Gly-As p-Ala-Lys] (H-AEDGDAKTDQAEKAEGAGDAK-OH)
  half-life: ~20 s
